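Grown in 96-well plates, cells were treated for 48 hours with each compound at five concentrations. Insufficient inhibition: endpoint recorded as highest concentration tested. At the GI50, growth is halved. TGI denotes the concentration required for complete inhibition of growth.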
Legend:
Assay in all cases: growth of human tumour cells (NCI), 48 h
A498 renal = system: A498 renal
COLO 205 colon = system: COLO 205 colon
HL-60(TB) leukemia = system: HL-60(TB) leukemia
OVCAR-4 ovarian = system: OVCAR-4 ovarian
SNB-78 CNS = system: SNB-78 CNS
SW-620 colon = system: SW-620 colon
UACC-257 melanoma = system: UACC-257 melanoma
DMS 114 small cell lung = system: DMS 114 small cell lung
MDA-MB-435 = system: MDA-MB-435
NCI/ADR-RES ovarian = system: NCI/ADR-RES ovarian

Row | Structure (SMILES) | TGI (A498 renal) [µM] | TGI (COLO 205 colon) [µM] | TGI (HL-60(TB) leukemia) [µM] | TGI (OVCAR-4 ovarian) [µM] | TGI (SNB-78 CNS) [µM] | TGI (SW-620 colon) [µM] | TGI (UACC-257 melanoma) [µM] | TGI (DMS 114 small cell lung) [µM] | GI50 (A498 renal) [nM] | GI50 (COLO 205 colon) [nM] | GI50 (HL-60(TB) leukemia) [nM] | GI50 (MDA-MB-435) [nM] | TGI (MDA-MB-435) [µM] | GI50 (NCI/ADR-RES ovarian) [nM] | TGI (NCI/ADR-RES ovarian) [µM] | GI50 (OVCAR-4 ovarian) [nM] | GI50 (SW-620 colon) [nM] | GI50 (UACC-257 melanoma) [nM] | GI50 (DMS 114 small cell lung) [nM] | GI50 (SNB-78 CNS) [nM]
1 | CC1(C)C(=O)/C=C\C(=O)C(C)(C)C2=CC=C(O2)C(C)(C)C(=O)/C=C\C(=O)C(C)(C)C2=CC=C1O2 | > 100 | > 100 | > 100 | > 100 | > 100 | > 100 | > 100 | – | – | – | – | – | – | – | – | – | – | – | – | –
2 | Cc1nc2c(ccc3ncccc32)[nH]1 | – | > 100 | > 100 | > 100 | – | > 100 | > 100 | > 100 | – | – | – | – | – | – | – | – | – | – | – | –
3 | Fc1[nH]nc2ccc([C@@H]3Nc4ccc5[nH]ncc5c4[C@H]4C5CCC(C5)[C@@H]34)cc12 (stereo partly specified) | 3.91 | 4.81 | 1.69 | 17.8 | – | 17.3 | 23.9 | – | 536 | 801 | 348 | 286 | 1.08 | 576 | 8.99 | 4510 | 472 | 10400 | – | –
4 | CN1CCCCC1CCN1c2ccccc2Sc2ccc(Cl)cc21 (stereo unspecified) | 10.8 | 4.83 | 6.05 | 16 | – | 10.1 | 5.52 | – | 2700 | 2240 | 2660 | 1860 | 4.04 | 2890 | 7.62 | 3660 | 2870 | 2450 | – | –
5 | O=C(O)CCNCCCNCCC(=O)O | > 100 | > 100 | > 100 | > 100 | – | > 100 | – | > 100 | – | – | – | – | – | – | – | – | – | – | – | –
6 | COc1cccc(C2c3cc4c(cc3OC(C)(N3CCCC3)C2C)OCO4)c1O (stereo unspecified) | 40.5 | 10.4 | 6.01 | > 100 | – | > 100 | > 100 | – | – | – | – | – | 3.82 | – | 11.8 | – | – | – | – | –
7 | CCN1CCN(Cc2ccc(NC(=O)c3cccc(C#Cc4cccc5[nH]nc(N)c45)c3)cc2C(F)(F)F)CC1 | 1.07 | 1.28 | 1.04 | 1.61 | – | 1.59 | 2.82 | – | 108 | 185 | 97.9 | 339 | 1.57 | 1590 | 5.21 | 198 | 343 | 1050 | – | –
8 | Nc1c(C(=O)c2cccc(CCS(N)(=O)=O)c2)cnn1-c1ccc(F)cc1 | > 25 | > 25 | > 25 | > 25 | – | > 25 | > 25 | – | > 25000 | > 25000 | > 25000 | > 25000 | > 25 | > 25000 | > 25 | > 25000 | > 25000 | > 25000 | – | –
9 | CCOC(=O)C(C)(C)Oc1ccc2c(-c3ccccc3)cc(=O)oc2c1 | > 100 | 42.7 | 63.8 | > 100 | – | > 100 | 75.5 | 64.1 | – | – | – | – | – | – | – | – | – | – | – | –
10 | Cc1ccsc1C(=S)Nc1ccc(Cl)c(/C=N/OC(C)(C)C)c1 | 41.1 | 33.7 | 74.7 | > 100 | – | > 100 | 69.1 | – | – | – | – | – | > 100 | – | > 100 | – | – | – | – | –
11 | COC([CH2][Hg][n]1cnc2c1c(=O)n(C)c(=O)n2C)CN1C(=O)c2ccccc2S1(=O)=O (stereo unspecified) | > 100 | > 100 | > 100 | > 100 | – | > 100 | > 100 | – | > 100000 | > 100000 | 53400 | > 100000 | > 100 | > 100000 | > 100 | > 100000 | > 100000 | > 100000 | – | –
12 | COc1cc(/C=N\NC(=O)CN2CCN(c3cc4c(cc3F)c(=O)c(C(=O)N/N=C/c3cc(OC)c(OC)c(OC)c3)cn4C3CC3)CC2)cc(OC)c1OC | 23.7 | > 23.2 | > 31.7 | > 100 | – | > 100 | – | – | 299 | 450 | 320 | 237 | 0.559 | > 100000 | > 100 | 379 | 328 | 360 | – | –
13 | O=C(Nc1nc2ccc([N+](=O)[O-])cc2s1)C(=O)C(C1OC(=O)c2ccccc21)[N+](=O)[O-] (stereo unspecified) | 45 | > 100 | > 100 | > 100 | > 100 | > 100 | > 100 | – | – | – | – | – | – | – | – | – | – | – | – | –
14 | CN(C)c1ccc(/C=C\C2=[N+](C)c3ccccc3C2(C)C)cc1 | 28.2 | 1.65 | > 100 | > 59.4 | – | 19.1 | > 31.2 | – | 4380 | 354 | 295 | 422 | 9.35 | 10600 | > 61.6 | 981 | 399 | 1500 | – | –
15 | CCC[CH2][Sn]([CH2]CCC)([S]c1cccc2cccnc12)[S]c1cccc2cccnc12 | 0.6 | 0.224 | – | 0.307 | 0.825 | 0.379 | – | 0.319 | 254 | 59.2 | – | – | – | – | – | 135 | 132 | – | 129 | 203
16 | CNC(=S)OCCC(C)CCCC(C)C (stereo unspecified) | 30 | – | 23.6 | 30.9 | 34.5 | 30.7 | 30.1 | – | – | – | – | – | – | – | – | – | – | – | – | –
17 | COc1ccc(CC2c3cc4c(cc3CCN2C)OCO4)c(C=O)c1OC (stereo unspecified) | > 100 | > 100 | > 100 | > 100 | – | > 100 | > 100 | – | – | – | – | – | > 100 | – | > 100 | – | – | – | – | –
18 | O=[N+]([O-])c1ccc2c(c1)/C(=N/N=C1c3ccccc3Cc3ccccc31)c1cc([N+](=O)[O-])cc([N+](=O)[O-])c1-2 | 18.2 | 9.9 | > 22.8 | 3.13 | – | 9.38 | 4.38 | – | – | – | – | – | 3.38 | – | 4.91 | – | – | – | – | –
19 | NC(=O)NO.O.O.O.O.O.O.O.O.O.O.O.[Ge].[Ge].[Ge].[Ge].[Ge].[O]=[Ge].[O]=[Ge].[O]=[Ge].[O]=[Ge].[O]=[Ge][OH] | > 100 | > 100 | 12.6 | > 100 | > 100 | > 100 | > 100 | – | – | – | – | – | – | – | – | – | – | – | – | –

Source: PubChem BioAssay (NCI)
